From patent US11932601B2, “Immunoregulatory agents” (FLEXUS BIOSCIENCES, INC., priority 2014, dated 2024) come the findings set out here.

In general, IC50 refers to the concentration needed to halve the response being measured.

For the assay, the target named is T1, human IDO1 (Homo sapiens, UniProt P14902).
T1 construct: expressed in transfected cells
T1 sequence (P14902 whole entry): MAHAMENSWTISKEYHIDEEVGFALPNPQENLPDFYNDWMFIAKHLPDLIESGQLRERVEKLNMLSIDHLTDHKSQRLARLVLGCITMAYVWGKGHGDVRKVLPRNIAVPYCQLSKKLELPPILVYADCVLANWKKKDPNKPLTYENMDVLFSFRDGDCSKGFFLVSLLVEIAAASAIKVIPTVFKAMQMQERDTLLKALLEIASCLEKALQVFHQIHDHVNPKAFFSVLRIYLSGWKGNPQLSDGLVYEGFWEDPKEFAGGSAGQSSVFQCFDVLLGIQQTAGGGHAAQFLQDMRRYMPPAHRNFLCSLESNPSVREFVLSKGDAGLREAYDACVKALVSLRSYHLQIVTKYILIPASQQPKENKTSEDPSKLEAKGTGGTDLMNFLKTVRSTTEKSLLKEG
As to the kind of experiment: HEK293 cells stably expressing human IDO1, IDO inhibition assay (kynurenine, Ehrlich reagent, absorbance 490 nm). It is filed as cell-based. The conditions noted are these: 20 hours incubation, 500 nM reference standard = 100% inhibition, read-out: HEK Human IDO-1 Biological Activity (IC50). On the procedure: HEK293 cells were transfected with a pCDNA-based mammalian expression vector harboring human IDO1 cDNA (NM 002164.2) by electroporation. They were cultured in medium (DMEM with 10% FBS) containing 1 mg/ml G418 for two weeks. Clones of HEK293 cells that stably expressed human IDO1 protein were selected and expanded for IDO inhibition assay.
The human IDO1/HEK293 cells were seeded at 10,000 cells per 50 μL per well with RPMI/phenol red free media contains 10% FBS in a 384-well black wall clear bottom tissue culture plate (Matrix Technologies LLC) 100 nL of certain concentration of compound was then added to each well using ECHO liquid handling systems. The cells were incubated for 20 hours in 37° C. incubator with 5% CO2.
The compound treatments were stopped by adding Trichloroacetic Acid (Sigma-Aldrich) to a final concentration at 0.2%. The cell plate was further incubated at 50° C. for 30 minute. The equal volume supernatant […] and 0.2% (w/v) Ehrlich reagent (4-dimethylaminobenzaldehyde, Sigma-Aldrich) in glacial acetic acid were mixed in a new clear bottom 384-well plate. This plate was then incubated at room temperature for 30 minute. The absorbance at 490 nm was measured on Envision plate reader.
In the case of `COc1cc([C@H]2CC[C@@H]([C@H](C)C(=O)Nc3ccc(Cl)cc3)CC2)ccn1` (single isomer, unassigned) [Example 307f, N-(4-Chlorophenyl)-2-(4-(2-methoxypyridin-4-yl)cyclohexyl)propanamide], the IC50 is under 0.05 µM.

On to `Cc1cnccc1C1CCC(C(C)C(=O)Nc2ccc(Cl)cc2)CC1` (single isomer, unassigned) [Example 313f, N-(4-chlorophenyl)-2-(4-(3-methylpyridin-4-yl)cyclohexyl) propanamide], for which the IC50 is under 0.05 µM.

Consider `Cc1c(C2CCC(C(C)C(=O)Nc3ccc(Cl)cc3)CC2)ccnc1F` (single isomer, unassigned) [Example 310a, (+/−)N-(4-chlorophenyl)-2-(4-(2-fluoro-3-methylpyridin-4-yl)cyclohexyl) propanamide], for which the IC50 is under 0.05 µM.

`CC1(CC(=O)NC2(C)CCCCC2)CCN(c2ccnc(C(F)(F)F)c2)CC1` [Example 322, 2-(4-Methyl-1-(2-(trifluoromethyl)pyridin-4-yl)piperidin-4-yl)-N-(1-methylcyclohexyl)acetamide]: the IC50 is over 0.25 µM.

For `Cc1c(C2CCC(C(C)C(=O)Nc3ccc(Cl)cc3)CC2)ccnc1F` (single isomer, unassigned) [Example 310e, N-(4-chlorophenyl)-2-(4-(2-fluoro-3-methylpyridin-4-yl)cyclohexyl) propanamide], the IC50 is under 0.05 µM.

Turning to `Cc1cnccc1C1CCC(C(C)C(=O)Nc2ccc(Cl)cc2)CC1` (single isomer, unassigned) [Example 313b, N-(4-chlorophenyl)-2-(4-(3-methylpyridin-4-yl)cyclohexyl) propanamide], the IC50 was under 0.05 µM.

For `C[C@H](C(=O)Nc1ccc(Cl)cc1)[C@H]1CC[C@H](Oc2ccnc(C(F)(F)F)c2)CC1` (single isomer, unassigned) [Example 324a], the IC50 was under 0.25 µM.

For the molecule `CC(C(=O)Nc1ccc(Cl)cc1)C1CCC(c2ccncc2F)CC1` (single isomer, unassigned) [Example 318e, N-(4-chlorophenyl)-2-(4-(3-fluoropyridin-4-yl)cyclohexyl) propanamide], the IC50 is under 0.05 µM.

As to `Cc1nccc(C2CCC(C(C)C(=O)Nc3ccc(Cl)cc3)CC2)c1C` (single isomer, unassigned) [Example 311d, N-(4-chlorophenyl)-2-(4-(2,3-dimethylpyridin-4-yl)cyclohexyl) propanamide], the half-inhibitory concentration (IC50) was under 0.05 µM.

As for `CC(C(=O)Nc1ccc(Cl)cc1)C1CCC(c2ccnnc2)CC1` (single isomer, unassigned) [Example 316c, N-(4-chlorophenyl)-2-(4-(pyridazin-4-yl)cyclohexyl) propanamide], the IC50 was over 0.25 µM.

On to `Cc1cc(C2CCC(C(C)C(=O)Nc3ccc(Cl)cc3)CC2)cc(C)n1` (single isomer, unassigned) [Example 308c, N-(4-chlorophenyl)-2-(4-(2,6-dimethylpyridin-4-yl)cyclohexyl) propanamide], for which the IC50 was over 0.25 µM.

For the molecule `Cc1c(C2CCC(C(C)C(=O)Nc3ccc(Cl)cc3)CC2)ccnc1F` (single isomer, unassigned) [Example 310c, N-(4-chlorophenyl)-2-(4-(2-fluoro-3-methylpyridin-4-yl)cyclohexyl) propanamide], the IC50 was under 0.05 µM.

For `COc1cc(C2CCC(C(C)C(=O)Nc3ccc(Cl)cc3)CC2)ccn1` (stereo not drawn) [Example 307a, Cis- or trans-N-(4-Chlorophenyl)-2-(4-(2-methoxypyridin-4-yl)cyclohexyl)propanamide], the half-inhibitory concentration (IC50) is under 0.05 µM.

As for `CCC(C(=O)Nc1ccc(Cl)cc1)[C@H]1CC[C@@H](Oc2ccncc2)CC1` (single isomer, unassigned) [Example 306a, N-(4-Chlorophenyl)-2-(cis-4-(pyridin-4-yloxy)cyclohexyl)butanamide], the IC50 is under 0.05 µM.

In the case of `CC(C(=O)Nc1ccc(Cl)cc1)C1CCC(c2ccnc(C(F)(F)F)c2)CC1` (single isomer, unassigned) [Example 312b, N-(4-chlorophenyl)-2-(4-(2-(trifluoromethyl)pyridin-4-yl)cyclohexyl) propanamide], the IC50 is under 0.05 µM.

`Cc1c(C2CCC(C(C)C(=O)Nc3ccc(Cl)cc3)CC2)ccnc1F` (single isomer, unassigned) [Example 310f, N-(4-chlorophenyl)-2-(4-(2-fluoro-3-methylpyridin-4-yl)cyclohexyl) propanamide]: the IC50 was under 0.25 µM.

For `Cc1cc(C2CCC(C(C)C(=O)Nc3ccc(Cl)cc3)CC2)ccn1` (single isomer, unassigned) [Example 309a, N-(4-chlorophenyl)-2-(4-(2-methylpyridin-4-yl)cyclohexyl) propanamide], the IC50 is over 0.25 µM.

For the molecule `Cc1nccc(C2CCC(C(C)C(=O)Nc3ccc(Cl)cc3)CC2)c1C` (single isomer, unassigned) [Example 311f, N-(4-chlorophenyl)-2-(4-(2,3-dimethylpyridin-4-yl)cyclohexyl) propanamide], the IC50 was under 0.25 µM.

For `Cc1nccc(C2CCC(C(C)C(=O)Nc3ccc(Cl)cc3)CC2)c1C` (single isomer, unassigned) [Example 311b, N-(4-chlorophenyl)-2-(4-(2,3-dimethylpyridin-4-yl)cyclohexyl) propanamide], the IC50 is under 0.05 µM.

Take `CC(C(=O)Nc1ccc(Cl)cc1)C1CCC(c2ccncc2F)CC1` (single isomer, unassigned) [Example 318b, N-(4-chlorophenyl)-2-(4-(3-fluoropyridin-4-yl)cyclohexyl) propanamide]: the IC50 is under 0.05 µM.

As for `CCC(C(=O)Nc1ccc(Cl)cc1)[C@H]1CC[C@@H](Oc2ccncc2)CC1` (single isomer, unassigned) [Example 306b, N-(4-Chlorophenyl)-2-(cis-4-(pyridin-4-yloxy)cyclohexyl)butanamide], the IC50 was over 0.25 µM.

As to `Cc1c(C2CCC(C(C)C(=O)Nc3ccc(Cl)cc3)CC2)ccnc1F` (single isomer, unassigned) [Example 310d, N-(4-chlorophenyl)-2-(4-(2-fluoro-3-methylpyridin-4-yl)cyclohexyl) propanamide], the IC50 was under 0.05 µM.

With `Cc1cc(C2CCC(C(C)C(=O)Nc3ccc(Cl)cc3)CC2)cc(C)n1` (single isomer, unassigned) [Example 308b, N-(4-chlorophenyl)-2-(4-(2,6-dimethylpyridin-4-yl)cyclohexyl) propanamide], the IC50 was under 0.05 µM.

In the case of `Cc1cc(C2CCC(C(C)C(=O)Nc3ccc(Cl)cc3)CC2)ccn1` (single isomer, unassigned) [Example 309b, N-(4-chlorophenyl)-2-(4-(2-methylpyridin-4-yl)cyclohexyl) propanamide], the concentration for half-maximal inhibition (IC50) is under 0.05 µM.

In the case of `Cc1nccc(C2CCC(C(C)C(=O)Nc3ccc(Cl)cc3)CC2)n1` (stereo not drawn) [Example 319a, N-(4-chlorophenyl)-2-(4-(2-methylpyrimidin-4-yl)cyclohexyl) propanamide], the concentration for half-maximal inhibition (IC50) was under 0.25 µM.

`Cc1nccc(C2CCC(C(C)C(=O)Nc3ccc(Cl)cc3)CC2)c1C` (single isomer, unassigned) [Example 311c, N-(4-chlorophenyl)-2-(4-(2,3-dimethylpyridin-4-yl)cyclohexyl) propanamide]: the IC50 was over 0.25 µM.

As to `CC(C(=O)Nc1ccc(Cl)cc1)C1CCC(c2ccncc2F)CC1` (stereo not drawn) [Example 318a, N-(4-chlorophenyl)-2-(4-(3-fluoropyridin-4-yl)cyclohexyl) propanamide], the IC50 was under 0.05 µM.
